Data reported in patent US20130337564A1, “Treatment of Pluripotent Cells” (Janssen Biotech, Inc., priority 2012, published 2013).

Assays:
Assay type in all cases: cell-based
[1] = system: HNF-3beta expression in human embryonic stem cells (H9 line); assay: High content screening assay: HNF-3beta protein expression (differentiation)
In short: (§1)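 H9 hESCs on MATRIGEL treated days 1-2 with 10 μM compound in DMEM:F12, 0.5% FCS, 100 ng/ml activin A; days 3-4 with 2% FCS plus activin A without compound. Fixed cells immunostained for Sox17 or HNF-3beta with Draq5 nuclear counterstain. Cell number and staining intensity quantified by high-content imaging, 12 fields/well.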

[2] = system: cells expressing pluripotency markers derived from human embryonic stem cells; assay: MTS viability (toxicity) assay of cells expressing pluripotency markers; set-up: Raw data (duplicate), first replicate / Average: unit not given here; settings: for viability at 10 µM: Homo sapiens, Embryonic stem cell, viability of cells expressing pluripotency markers, relative to control; for Raw data (duplicate), first replicate / Raw data (duplicate), second replicate: MTS viability assay raw reading; for Raw data (duplicate), first replicate: replicate 1; for Raw data (duplicate), second replicate: replicate 2; for Average: average of duplicate MTS raw readings; for Average of raw data (duplicate), optical density at 490 nm: MTS on day 4
In short: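 A GSK-3B inhibitor library was screened for toxicity to pluripotency-marker-expressing cells. Compound was given in DMEM:F12 with 0.5% FCS and 100 ng/ml Activin A for two days, then replaced by medium with 2% FCS and Activin A. On day 4, MTS absorbance at 490 nm gave viability as percent of Activin A plus Wnt3a control wells.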

[3] = system: Sox17 expression in human embryonic stem cells (H9 line); assay: High content screening assay: Sox17 protein expression (differentiation)
In short: as §1

Row | Compound | fold induction at 10 µM ([1]; Homo sapiens, Embryonic stem cell, 10 μM test compound with 100 ng/ml activin A on days 1-2, H9, total intensity by IN Cell Analyzer, strong and moderate hits, read-out: HNF3β Expression, Fold over Wnt 3a/AA control) | HNF-3b Expression Total Intensity [1] | viability at 10 µM [2] [%] | Raw data (duplicate), first replicate [2] | Raw data (duplicate), second replicate [2] | Average [2] | fold induction at 10 µM ([3]; Homo sapiens, Embryonic stem cell, 10 μM test compound with 100 ng/ml activin A on days 1-2, H9, total intensity by IN Cell Analyzer, strong and moderate hits, read-out: SOX17 Expression, Fold over Wnt 3a/AA control) | SOX-17 Expression Total Intensity [3] | Average of raw data (duplicate), optical density at 490 nm ([2]; cmpd conc 2.5 μM) | Average of raw data (duplicate), optical density at 490 nm ([2]; cmpd conc 5 μM) | Average of raw data (duplicate), optical density at 490 nm ([2]; cmpd conc 10 μM)
1 | Cn1cc(C2=C(c3nn(CCCn4ccnn4)c4ccccc34)C(=O)NC2=O)c2cc(Cl)ccc21 [Compound 232, 3-(5-Chloro-1-methyl-1H-indol-3-yl)-4-{1-[3-(1H-1,2,3-triazol-1-yl)propyl]-1H-indazol-3-yl}-1H-pyrrole-2,5-dione] | 0.771 | 854325000 | 87.3 | 0.720 | 0.697 | 0.709 | 1.07 | 1045395000 | – | – | –
2 | O=C1NC(=O)C2=C1Nc1cccc(c1)OCCC/C=C\CCCOc1cccc2c1 [Compound 233, (11Z)-8,9,10,13,14,15-Hexahydro-2,6:17,21-di(metheno)pyrrolo[3,4-h][1,15,7]dioxazacyclotricosine-22,24(1H,23H)-dione] | – | 109160000 | 70.9 | 0.608 | 0.590 | 0.599 | – | 327055000 | 0.4267 | 0.1283 | 0.1391
